Results: paper PMC6072100, “Exploring the links between peptoid antibacterial activity and toxicity” (MedChemComm, 2017)
Square brackets hold non-standard residues; d marks the D form. Peptide text beside a SMILES is read from it. N(isopentyl)Gly = CC(C)CCNCC(=O)O; Nspe = C[C@H](NCC(=O)O)c1ccccc1; NhArg = N=C(N)NCCCCNCC(=O)O; Nlys = NCCCCNCC(=O)O

Columns and labels:
[1] = test system: Escherichia coli K-12 wild-type strain (W3110/ATCC27325); format: cell-based; details: lowest concentration completely inhibiting growth, 37 °C, 16 h; range 2–100 μM
Experimental: (§1) Escherichia coli K-12 wild-type strain (W3110/ATCC27325, F^–, λ^–, rpoS(Am), rph-1, Inv(rrnD-rrnE)), Pseudomonas aeruginosa PA01 (ATCC 15692) Staphylococcus aureus (3R7089 strain Oxford/ATCC9144) and Staphylococcus epidermidis (laboratory strain from clinical isolate) were selected for bacteriological studies as representative Gram-negative (E. coli and P. aeruginosa) and Gram-positive (S. aureus and S. epidermidis) species. Bacterial cultures were prepared by streaking bacterial strains onto LB agar plates with an inoculation loop and incubated overnight at 37 °C. A single colony was selected and placed in 5 mL of Iso-sensitest broth (Oxoid, ThermoScientific) and incubated with shaking for 16–18 h at 37 °C to provide liquid cultures for testing.
(§2) MIC values were obtained according to the protocol described by J. M. Andrews et al.[58] and were conducted in 96-well plates (Sarstedt). Bacteria were grown from overnight cultures in Iso-sensitest broth to an A650nm of 0.07 equivalent to a 0.5 MacFarland standard (240 μM BaCl2 in 0.18 M H2SO4). This culture was diluted ten-fold with Iso-sensitest broth before use. Peptoids were initially dissolved in DMSO (5 mM) and diluted further in Iso-sensitest broth to achieve a concentration range of 4–200 μM using 2-fold serial dilutions. 50 μl of inoculum and 50 μl of peptoid solution were added to each test well (final concentration range of 2–100 μM). Experiments were performed in triplicate. A positive control for bacterial growth contained only the inoculum and Iso-sensitest broth. Other controls contained the inoculum and serial dilutions of ampicillin (from 250 μg mL^–1 to 2 μg mL^–1), serial dilutions of DMSO and the inoculum to confirm no inhibitory effect on bacterial growth, and Iso-sensitest broth alone as a sterile control. […] Quantitative data was attained from absorbance values using a Biotek Synergy H4 plate reader.
(§3) Antibacterial MIC determination
as §1, with “(W3110 / ATCC27325, F-, λ-,” for “(W3110/ATCC27325, F^–, λ^–,”, “Oxford / ATCC9144)” for “Oxford/ATCC9144)”, “°C.” for “°C. A single colony was selected and placed in 5 mL of Iso-sensitest broth (Oxoid, ThermoScientific) and incubated with shaking for 16–18 h at 37 °C to provide liquid cultures for testing.”
(§4) A single colony was selected and placed in 5 mL of Iso-sensitest broth (Oxoid, ThermoScientific) and incubated with shaking for 16-18 h at 37 °C to provide liquid […]
(§5) MIC values were obtained according to the protocol described by J. M. Andrews et al.1 and were conducted in 96-well plates (Sarstedt). Bacteria were grown from overnight cultures in Iso-sensitest broth to an A650nm of 0.07 equivalent to a 0.5 MacFarland standard (240 μM BaCl2 in 0.18 M H2SO4). This culture was diluted ten-fold with Iso-sensitest broth before use. Peptoids were initially dissolved in DMSO (5 mM) and diluted further in Iso-sensitest broth to achieve a concentration range of 4 – 200 µM using 2-fold serial dilutions. 50 μl of inoculum and 50 μl of peptoid solution were added to each test well (final concentration range of 2 – 100 µM). Experiments were performed in triplicate. A positive control for bacterial growth contained only the inoculum and Iso-sensitest broth. Other controls contained the inoculum and serial dilutions of ampicillin (from 250 µg/mL to 2 µg/mL), serial dilutions of DMSO and the inoculum to confirm no inhibitory effect on bacterial growth, and Iso-sensitest broth alone as a sterile control. […]
(§6) growth after incubation at 37 °C for 16 h with shaking. Quantitative data was attained from absorbance values using a Biotek Synergy H4 plate reader.

[2] = test system: Pseudomonas aeruginosa PA01 (ATCC 15692); format: cell-based; details: lowest concentration completely inhibiting growth, 37 °C, 16 h; range 2–100 μM
Experimental: as §1, §2, §3
as §1, with “(W3110 / ATCC27325, F-, λ-,” for “(W3110/ATCC27325, F^–, λ^–,”, “Oxford / ATCC9144)” for “Oxford/ATCC9144)”, “°C.” for “°C. A single colony was selected and placed in 5 mL of Iso-sensitest broth (Oxoid, ThermoScientific) and incubated with shaking for 16–18 h at 37 °C to provide liquid cultures for testing.”
as §4, §5, §6

[3] = test system: Staphylococcus aureus (3R7089 strain Oxford/ATCC9144); format: cell-based; details: lowest concentration completely inhibiting growth, 37 °C, 16 h; range 2–100 μM
Experimental: as §1, §2, §3
as §1, with “(W3110 / ATCC27325, F-, λ-,” for “(W3110/ATCC27325, F^–, λ^–,”, “Oxford / ATCC9144)” for “Oxford/ATCC9144)”, “°C.” for “°C. A single colony was selected and placed in 5 mL of Iso-sensitest broth (Oxoid, ThermoScientific) and incubated with shaking for 16–18 h at 37 °C to provide liquid cultures for testing.”
as §4, §5, §6

[4] = test system: Staphylococcus epidermidis (laboratory strain from clinical isolate); format: cell-based; details: lowest concentration completely inhibiting growth, 37 °C, 16 h; range 2–100 μM
Experimental: as §1, §2, §3
as §1, with “(W3110 / ATCC27325, F-, λ-,” for “(W3110/ATCC27325, F^–, λ^–,”, “Oxford / ATCC9144)” for “Oxford/ATCC9144)”, “°C.” for “°C. A single colony was selected and placed in 5 mL of Iso-sensitest broth (Oxoid, ThermoScientific) and incubated with shaking for 16–18 h at 37 °C to provide liquid cultures for testing.”
as §4, §5, §6

[5] = Skin cell toxicity assay with HaCaT (alamarBlue); format: cell-based, human; details: human, HaCaT cells (keratinocytes), ED50 HaCaT
Experimental: The activity of our peptoid library was assessed against both bacterial and mammalian cells to gain a broader understanding of the factors that lead to effective and selective antimicrobial peptoids. We screened for broad-spectrum antibacterial activity against Gram-negative (Escherichia coli and Pseudomonas aeruginosa) and Gram-positive (Staphylococcus aureus and S. epidermidis) bacteria. The toxicity of the library was also assessed against two mammalian cell lines; HaCaT spontaneously transformed aneuploid keratinocytes were employed to model toxicity against human skin cells and HepG2, a cell line derived from a human liver carcinoma, were used as a study on polarised human hepatocytes. Detailed methods for these assays can be found in the ESI. ^‡ […]
Please note – ED50, the median effective dose, was defined as the dose that kills 50% of cells.
Cytotoxicity analyses were performed in 96-well plates (Costar, Fisher Scientific) using alamarBlue® (Invitrogen) for cell viability detection using a modified protocol as described previously. HepG2 or HaCaT cells were subcultured at 37 °C, 5% CO2 in DMEM high glucose supplemented with heat-inactivated foetal bovine sera (FBS, 10%; Biosera Ltd) and penicillin/streptomycin (P/S, 1%). Cells were counted using a Neubauer Improved Haemocytometer. HepG2 cells were seeded 1 day prior to treatment in 96 well plates at a concentration of 2 × 10^5 cells per mL in 100 μL of medium (2 × 10^4 cells per well). Then cells were pre-incubated with the compounds in triplicate in a dilution series in triplicate from 2–100 μM (5 mM stock solutions in DMSO diluted from 100 μM to 3 μM; untreated cells with DMSO as a negative control) in 50 μl of the media for 1 hour. Afterwards, 40 μL were removed from each well before the addition of 90 μL of the media, followed by incubation for 24 hours at 37 °C, 5% CO2. Then, 10 μL of alamarBlue® (Invitrogen) was added to each well before a 2 hour incubation prior to assessing cell viability using a fluorescent plate reader (Biotek; Ex 560 nm/Em 600 nm). All data were measured in triplicate on a minimum of two occasions to ensure a robust data set was collected. The ED50 values were calculated from the dose response results achieved from the serial dilutions. […]
Cells were counted using a Neubauer Improved
Haemocytometer. […]
µM to 3 µM; untreated cells with DMSO as a negative control) in 50 µl of the media for 1 hour.
Afterwards, 40 µL were removed from each well before the addition of 90 µL of the media, followed by incubation for 24 hours at 37 °C, 5% CO2. Then, 10 µL of alamarBlue® (Invitrogen) was added to each well before a 2 hour incubation prior to assessing cell viability using a fluorescent plate reader (Biotek; Ex 560 nm / Em 600 nm). All data was measured in triplicate on a minimum of two occasions to ensure a robust data set was collected. The ED50 values were calculated from the dose response results achieved from the serial dilutions.
Skin Cell Toxicity assay with HaCaT […]
alamarBlue® (Invitrogen) for cell viability detection. HaCaT cells were subcultured at 37 °C, 5% CO2 in DMEM high glucose supplemented with heat-inactivated foetal bovine sera (FBS, 10%; Biosera Ltd) and penicillin/streptomycin (P/S, 1%). Cells were counted using a Neubauer Improved Haemocytometer. HaCaT cells were seeded in the plates 24 hours prior to treatment in 96 well plates at a concentration of 2x10^5 cells/mL in 100 µL of medium (2x10^4 cells/well).
Empty wells were filled with 100 µL PBS. After 24 hours, cells were incubated with the compounds in a dilution series in triplicate from 2 – 100 µM (5 mM stock solutions in DMSO diluted from 100 µM to 3 µM; Amphotericin B was used as a positive control and untreated cells with DMSO as a negative control) in 50 µL of the media for 1 hour. Afterwards, 40 µl was removed from each well, 90 µL of medium was added to each well and the cells incubated for 24 hours at 37 °C, 5% CO2. 10 µL of alamarBlue® (Invitrogen) was added to each well before […]

Row | SMILES | MIC E. coli [1] [µM] | MIC P. aeruginosa [2] [µM] | MIC S. aureus [3] [µM] | MIC S. epidermidis [4] [µM] | CC50 at 24 h [5] [µM]
1 | C[C@@H](c1ccccc1)N(CC(N)=O)C(=O)CN(C(=O)CN(CCCCNC(=N)N)C(=O)CN(C(=O)CN(C(=O)CN(CCCCNC(=N)N)C(=O)CN(C(=O)CN(C(=O)CNCCCCNC(=N)N)[C@@H](C)c1ccccc1)[C@@H](C)c1ccccc1)[C@@H](C)c1ccccc1)[C@@H](C)c1ccccc1)[C@@H](C)c1ccccc1 [Peptoid 35, (NhArgNspeNspe)3] (H-[NhArg][Nspe][Nspe][NhArg][Nspe][Nspe][NhArg][Nspe][Nspe]-NH2; N-terminus assumed) | 6 | 50 | 2 | 2 | –
2 | N=C(N)NCCCCNCC(=O)N(CC(=O)N(CC(=O)N(CCCCNC(=N)N)CC(=O)N(CC(=O)N(CC(=O)N(CCCCNC(=N)N)CC(=O)N(CC(=O)N(CC(N)=O)Cc1cccc(F)c1)Cc1cccc(F)c1)Cc1cccc(F)c1)Cc1cccc(F)c1)Cc1cccc(F)c1)Cc1cccc(F)c1 [Peptoid 37, (NhArgNmfbNmfb)3] | 6 | 25 | 2 | 1 | –
3 | CC(C)CCN(CC(=O)N(CC(N)=O)[C@@H](C)c1ccccc1)C(=O)CN(CCCCNC(=N)N)C(=O)CN(C(=O)CN(CCC(C)C)C(=O)CN(CCCCNC(=N)N)C(=O)CN(C(=O)CN(CCC(C)C)C(=O)CN(CCCCNC(=N)N)C(=O)CN(C(=O)CN(CCC(C)C)C(=O)CNCCCCNC(=N)N)[C@@H](C)c1ccccc1)[C@@H](C)c1ccccc1)[C@@H](C)c1ccccc1 [Peptoid 38, (NhArgNhLeuNspe)4] (H-[NhArg][N(isopentyl)Gly][Nspe][NhArg][N(isopentyl)Gly][Nspe][NhArg][N(isopentyl)Gly][Nspe][NhArg][N(isopentyl)Gly][Nspe]-NH2; N-terminus assumed) | 13 | 25 | 1 | 2 | –
4 | CC(C)CCN(CC(=O)N(CC(N)=O)[C@@H](C)c1ccccc1)C(=O)CN(CCCCNC(=N)N)C(=O)CN(C(=O)CN(CCC(C)C)C(=O)CN(CCCCNC(=N)N)C(=O)CN(C(=O)CN(CCC(C)C)C(=O)CNCCCCNC(=N)N)[C@@H](C)c1ccccc1)[C@@H](C)c1ccccc1 [Peptoid 39, (NhArgNhLeuNspe)3] (H-[NhArg][N(isopentyl)Gly][Nspe][NhArg][N(isopentyl)Gly][Nspe][NhArg][N(isopentyl)Gly][Nspe]-NH2; N-terminus assumed) | – | 100 | 3 | 2 | –
5 | C[C@@H](c1ccccc1)N(CC(N)=O)C(=O)CN(C(=O)CN(CCCCN)C(=O)CN(C(=O)CN(C(=O)CN(CCCCN)C(=O)CN(C(=O)CN(C(=O)CN(CCCCNC(=N)N)C(=O)CN(C(=O)CN(C(=O)CNCCCCNC(=N)N)[C@@H](C)c1ccccc1)[C@@H](C)c1ccccc1)[C@@H](C)c1ccccc1)[C@@H](C)c1ccccc1)[C@@H](C)c1ccccc1)[C@@H](C)c1ccccc1)[C@@H](C)c1ccccc1 [Peptoid 42, (NhArgNspeNspe)2(NLysNspeNspe)2] (H-[NhArg][Nspe][Nspe][NhArg][Nspe][Nspe][Nlys][Nspe][Nspe][Nlys][Nspe][Nspe]-NH2) | 17 | 17 | 17 | – | 15
6 | C[C@@H](c1ccccc1)N(CC(N)=O)C(=O)CN(C(=O)CN(CCCCN)C(=O)CN(C(=O)CN(C(=O)CN(CCCCN)C(=O)CN(C(=O)CN(C(=O)CN(CCCCNC(=N)N)C(=O)CN(C(=O)CN(C(=O)CNCCCCN)[C@@H](C)c1ccccc1)[C@@H](C)c1ccccc1)[C@@H](C)c1ccccc1)[C@@H](C)c1ccccc1)[C@@H](C)c1ccccc1)[C@@H](C)c1ccccc1)[C@@H](C)c1ccccc1 [Peptoid 43, (NLysNspeNspe)(NhArgNspeNspe)(NLysNspeNspe)2] (H-[Nlys][Nspe][Nspe][NhArg][Nspe][Nspe][Nlys][Nspe][Nspe][Nlys][Nspe][Nspe]-NH2) | 17 | 17 | 17 | – | 33
7 | C[C@@H](c1ccccc1)N(CC(N)=O)C(=O)CN(C(=O)CN(CCCCN)C(=O)CN(C(=O)CN(C(=O)CN(CCCCNC(=N)N)C(=O)CN(C(=O)CN(C(=O)CN(CCCCN)C(=O)CN(C(=O)CN(C(=O)CNCCCCNC(=N)N)[C@@H](C)c1ccccc1)[C@@H](C)c1ccccc1)[C@@H](C)c1ccccc1)[C@@H](C)c1ccccc1)[C@@H](C)c1ccccc1)[C@@H](C)c1ccccc1)[C@@H](C)c1ccccc1 [Peptoid 44, [(NhArgNspeNspe)(NLysNspeNspe)]2] (H-[NhArg][Nspe][Nspe][Nlys][Nspe][Nspe][NhArg][Nspe][Nspe][Nlys][Nspe][Nspe]-NH2) | 17 | 67 | 17 | – | 33
